Test results taken from patent US20240252461A1, “COMPOSITIONS AND METHODS FOR TREATMENT OF DEMYELINATION” (priority 2018, published 2024).

Tests used:
[1] = Blood-brain barrier penetration: DFO concentration in rat brain after IP injection; format: in vivo; details: for fraction of DFO that infiltrated the brain / DFO (mg/g organ) / DFO (mg/whole organ): SD rats; for fraction of DFO that infiltrated the brain: 90 min; for DFO (mg/g organ): brain; for DFO (mg/whole organ): whole brain
Method: In this study, the ability of the Zn-DFO complex to infiltrate into the brain was examined. Rats were injected intraperitoneally (IP) with increasing amounts of DFO alone or Zn-DFO complex, and the concentration of DFO was measured in their brains, thus monitoring their infiltrability.
(§1) In particular, male Sprague-Dawley (SD) rats (300 g average body weight, 3 animals per group) were injected IP with DFO (250, 500, or 1000 mg/kg body weight). For comparison, Zn-DFO solution in freshly prepared saline was injected IP (250, 500, or 1000 mg/kg body weight, which are equivalent to 221, 442, or 883 mg DFO/kg body weight, respectively).
(§2) The behavior of the rats was monitored for 90 min following the injection. Then, the animals were euthanized using an injection of ketamine-xylazine, and their hearts, livers, left kidneys, and brains were excised and weighted. Brain samples (300 mg tissue) were washed homogenized in 3 ml Lysis buffer. Tissue homogenates were incubated at 110° C. for 5 min and centrifuged for 5 min at 14,500 relative centrifugal force (RCF). An equal volume of 40% trichloroacetic acid (TCA) solution was added, forming a solution containing 20% TCA, which was vortexed and centrifuged again. The supernatants were transferred into cuvettes, and DFO concentration was spectrophotometrically measured, after addition of 10 mM of ferric iron solution (as a weak complex of iron, ferric-nitrilo-triacetate, at pH=7.4), and scanning the range of λ=380−580 nm. The final concentration was calculated according to the Beer-Lambert law, using εDFO=2460 M^−1cm^−1: the total amount of DFO per gram tissue and per whole brain were calculated.

[2] = Behavior of rats monitored for 90 min following IP injection; format: in vivo, rat; details: the three doses (250, 500, 1000 mg/kg IP)
Method: as §1, §2

[3] = system: Experimental Autoimmune Encephalomyelitis (EAE) model; assay: Murine Experimental Autoimmune Encephalomyelitis (EAE) model of multiple sclerosis; format: in vivo, C57BL/6 mice; details: glatiramer acetate 200 μg SC on day 0, alone
Method: In this study, the therapeutic effect of treatment with glatiramer acetate (Copaxone®) alone or in combination with Zn-DFO on multiple sclerosis (MS) is tested, using the murine Experimental Autoimmune Encephalomyelitis (EAE) model.
EAE is induced in 8-week-old female C57BL/6 mice by subcutaneous (SC) injection of 125 μg of myelin oligodendrocyte glycoprotein 35-55 peptide (MOG35-55) emulsified in complete Freund's adjuvant (CFA) containing 5 mg/ml heat-killed Mycobacterium tuberculosis into the left para-lumbar region. Immediately thereafter, and again at 48 h, the mice are inoculated intraperitoneal (IP) with 0.5 ml of pertussis toxin (400 ng). Seven days later, the mice are further challenged with an additional injection of MOG35-55 peptide in CFA injected into the right para-lumbar region.
Mice are treated with SC injection of 200 (μg glatiramer acetate (Copaxone®) per animal in mannitol 4% emulsion on day 0. Part of the animals are continued to be treated with Zn-DFO as IP injections, 2 mg/kg or 6 mg/kg, thrice a week till the end of the experiment (Day 28). Two additional groups of mice are treated with Zn-DFO analogously, but without the preceding injection with glatiramer acetate. The severity of the disease is assessed using the scale shown in Table 2 (Bittner et al. 2014).

MS = details: cited from earlier work
[4] = 90 min after IP injection of 250 mg/kg
[5] = 90 min after IP injection of 500 mg/kg
[6] = 90 min after IP injection of 1000 mg/kg

Row | Molecule | fraction of DFO that infiltrated the brain ([1]; IP 250 mg/kg) [%] | fraction of DFO that infiltrated the brain ([1]; IP 500 mg/kg) [%] | fraction of DFO that infiltrated the brain ([1]; IP 1000 mg/kg) [%] | DFO (mg/g organ) [1, 4] [mg/g organ] | DFO (mg/g organ) [1, 5] [mg/g organ] | DFO (mg/g organ) [1, 6] [mg/g organ] | fraction of DFO that had infiltrated into the brain ([1]; corresponding doses (250, 500, 1000 mg/kg IP), limited sensitivity of the instrument) [%] | DFO (mg/whole organ) [1, 4] [mg/whole organ] | DFO (mg/whole organ) [1, 5] [mg/whole organ] | DFO (mg/whole organ) [1, 6] [mg/whole organ] | rats' behavior after injection [2] | day on which peak clinical score is reached [3] [days] | onset of the disease [3] [days] | effect on the main outcome measures in MS (disease progression) (MS; La Mantia et al., 2010) | reduction of relapses (MS; relapsing-remitting MS, Hassan-Smith et al., 2011)
1 | CC(=O)N(O)CCCCCNC(=O)CCC(=O)N(O)CCCCCNC(=O)CCC(=O)N(O)CCCCCN [DFO, N′-[5-(acetyl-hydroxy-amino)pentyl]-N-[5-[3-(5-aminopentyl-hydroxy-carbamoyl)propanoylamino]pentyl]-N-hydroxy-butane diamide] | <0.0015 | <0.0015 | 0.002 | <0.005 | <0.005 | 0.008 ± 0.004 | ≤ 0.002 | <0.005 | <0.005 | 0.019 ± 0.008 | no changes in rats' behavior |  |  |  | 
2 | glatiramer acetate |  |  |  |  |  |  |  |  |  |  |  | 17 | 14 | did not show any beneficial effect | approximately 30%
